From patent publication US20130289520A1, “TARGETED AND LIGHT-ACTIVATED CYTOSOLIC DRUG DELIVERY” (CHILDREN'S HOSPITAL BOSTON, priority 2010, published 2013)

How the values were obtained:
LN-229 cells [1] = test: Light-activated cytosolic delivery of co-endocytosed dextran, NeutrAvidin and QD; format: cell-based, human; details: for cytosolic delivery of co-endocytosed macromolecule or particle after light stimulation of NPs: LN-229 cells, overnight co-endocytosis with NPs, TRITC-filtered light 30 to 120 s
Protocol: We then determined whether the NPs could liberate co-endocytosed macromolecules and nanoparticles. […] In this experiment, one set of LN-229 cells was incubated with NPs loaded with a releasable cargo dye (Alexa 546), while a second set was incubated with NPs carrying a dye covalently bound to their matrix during synthesis (Alexa633; so it could not be released). The two cells populations were then plated together, and incubated in the presence of dextran-FITC. […] The lower release kinetics of dextran in the case of the covalently labeled Alexa633-NPs may be explained by a lower excitation efficiency of this fluorophore through the TRITC filter set used for exposure.
LN-229 cells were biotinylated at room temperature with NHS-PEO4-biotin in D-PBS (500 μM, Pierce) supplemented with 10 mM glucose for 30 min, washed ×5 in D-PBS, and trypsinized in 0.01% trypsin/EDTA. Cells were collected with DMEM-10% FBS, centrifuged for 5 min at 1,000 rpm, and resuspended in a 50 μg/mL solution of dye-loaded NP-streptavidin in D-PBS-glucose. After 30 min, the cells were washed twice in D-PBS, resuspended in DMEM-10% FBS, and plated on 12 mm glass coverslips at a density of ˜10^5 cells/cm^2. Dextran-FITC (3 kDa, Sigma), NeutrAvidin-FITC (Pierce), or QD525-streptavidin conjugates (Invitrogen) were added to the cells at respective concentrations of 1 mg/mL, 5 μg/mL, and 2 nM. Cells were placed in a 37° C. incubator overnight with 5% CO2 to allow for coverslip attachment and simultaneous endocytosis of the surface-bound NP-streptavidin conjugates, as well as dextran, NeutrAvidin, or QDs present in the culture medium. After overnight endocytosis, cells were washed twice in D-PBS, and transferred to a live-cell imaging chamber for light stimulation and observation in D-PBS supplemented with 10 mM glucose.
For experiments involving two types of NPs, the orange pseudo-colored NPs were the post-synthesis Alexa 546 loaded NPs used in all other experiments, while the red pseudo-colored NPs were covalently bound to Alexa 633 incorporated during synthesis of the NPs (1 μL of MPTMS and 20 μL of a 10 mM stock solution of Alexa 633-maleimide were incubated overnight at room temperature, and premixed with the silicate precursors before injection into the reaction mixture. Unreacted dye was removed during the surfactant extraction process). The “orange” nanoparticles can release part of their cargo, while the dye is irreversibly bound to the silica matrix for the “red” NPs. After trypsinization, the biotinylated LN-229 cells were incubated separately with each type of NP, and remixed at 1:1 before plating and overnight incubation with dextran-FITC.

LN-229 cells [2] = test: Light-induced cytosolic release of NP cargo after endocytosis; format: cell-based, human; details: co-incubated overnight with PEI-PEG coated NPs; green light
Protocol: Following overnight NP endocytosis, cells were exposed to green excitation light (520-550 nm, MWIG3/TRITC filter) for durations ranging from 3 s to 120 s. […] Confocal micrographs were analyzed using the software package Image-J. Average cell fluorescence was determined by manual contouring of cell borders. Data were then imported into Matlab (The Mathworks) for analysis and plotting purposes. The amount of dye released in the cell cytosol following light stimulation was taken as the difference in average cell fluorescence before and after light exposure.

Compound | cytosolic delivery of co-endocytosed macromolecule or particle after light stimulation of NPs (LN-229 cells [1]) | cytosolic delivery of co-endocytosed macromolecule or particle after light stimulation of NPs (LN-229 cells [1]; listed as QD525-streptavidin) | cytosolic release of co-endocytosed compound after light exposure (LN-229 cells [2]) | time to maximum cell fluorescence (LN-229 cells [1]; following the end of 120 s light exposure)
dextran-FITC | successfully mediated cytosolic delivery | – | – | –
quantum-dot-streptavidin conjugates: QD525-streptavidin conjugates (Invitrogen) | remained clustered in the endo-lysosomal compartment | do not migrate into the cytosol | – | –
O=C(O)CN(CC(=O)O)Cc1cc2c(cc1O)Oc1cc(O)c(CN(CC(=O)O)CC(=O)O)cc1C21OC(=O)c2ccccc21 [calcein] | – | – | cytosolic release | –
NeutrAvidin: NeutrAvidin-FITC protein conjugate (Pierce) | could also be delivered to the cell cytosol | – | – | > 10 min
